Laboratory results: patent US4084006A, “Method of using dialkylphenols an antiviral agents” (priority 1977, dated 1978)

Test system: San Carlos virus
Assay: Dimethylphenols against San Carlos virus in tissue culture (human embryonic lung), CPE
Type: cell-based, San Carlos virus (adenovirus)
Details: for CPE with TCID50 doses of San Carlos virus: human embryonic lung, 100 TCID50; for anti-viral activity against San Carlos virus: at various concentrations

In the case of `Cc1cccc(O)c1C` [2,3-dimethylphenol], the “CPE with TCID50 doses of San Carlos virus” value (“CPE with TCID50 doses” below) (10^-6 grams 2X) is reported as 3+ (75% of cells infected with selected virus), the “CPE with TCID50 doses” value (10^-7 grams 2X) is reported as 2+ (50% of cells infected with selected virus) and the “CPE with TCID50 doses” value (10^-8 grams 2X) is reported as 2+ (50% of cells infected with selected virus). The “CPE with TCID50 doses” value (10^-9 grams 2X) was 1+ (25% of cells infected with selected virus), the “CPE with TCID50 doses” value (10^-10 grams 2X) was 1+ (25% of cells infected with selected virus) and the “CPE with TCID50 doses” value (10^-11 grams 2X) was 1+ (25% of cells infected with selected virus). The “CPE with TCID50 doses” value (10^-12 grams 2X) was 2+ (50% of cells infected with selected virus), the “CPE with TCID50 doses” value (10^-13 grams 2X) was 1+ (25% of cells infected with selected virus) and the “CPE with TCID50 doses” value (10^-14 grams 2X) was 2+ (50% of cells infected with selected virus). For the same compound, the “CPE with TCID50 doses” value (10^-15 grams 2X) was 2+ (50% of cells infected with selected virus) and the “anti-viral activity against San Carlos virus” value (“anti-viral activity” below) was “exhibit anti-viral activity”.

In the case of `Cc1ccc(C)c(O)c1` [2,5-dimethylphenol], the “CPE with TCID50 doses” value (10^-6 grams 2X) is reported as 3+ (75% of cells infected with selected virus), the “CPE with TCID50 doses” value (10^-7 grams 2X) is reported as 2+ (50% of cells infected with selected virus) and the “CPE with TCID50 doses” value (10^-8 grams 2X) is reported as 1+ (25% of cells infected with selected virus). For the same compound, the “CPE with TCID50 doses” value (10^-9 grams 2X) was “± (less than 10% infected)”, the “CPE with TCID50 doses” value (10^-10 grams 2X) was 1+ (25% of cells infected with selected virus) and the “CPE with TCID50 doses” value (10^-11 grams 2X) was 1+ (25% of cells infected with selected virus). The “CPE with TCID50 doses” value (10^-12 grams 2X) was “± (less than 10% infected)”, the “CPE with TCID50 doses” value (10^-13 grams 2X) was “± (less than 10% infected)” and the “CPE with TCID50 doses” value (10^-14 grams 2X) was “± (less than 10% infected)”. For the same compound, the “CPE with TCID50 doses” value (10^-15 grams 2X) was 2+ (50% of cells infected with selected virus) and the “anti-viral activity” value was “exhibit anti-viral activity”.

With `Cc1cccc(C)c1O` [2,6-dimethylphenol] the “CPE with TCID50 doses” value (10^-6 grams 2X) was 2+ (50% of cells infected with selected virus), the “CPE with TCID50 doses” value (10^-7 grams 2X) was 2+ (50% of cells infected with selected virus) and the “CPE with TCID50 doses” value (10^-8 grams 2X) was 1+ (25% of cells infected with selected virus). For the same compound, the “CPE with TCID50 doses” value (10^-9 grams 2X) was 2+ (50% of cells infected with selected virus), the “CPE with TCID50 doses” value (10^-10 grams 2X) was 1+ (25% of cells infected with selected virus) and the “CPE with TCID50 doses” value (10^-11 grams 2X) was 3+ (75% of cells infected with selected virus). For the same compound, the “CPE with TCID50 doses” value (10^-12 grams 2X) was 2+ (50% of cells infected with selected virus), the “CPE with TCID50 doses” value (10^-13 grams 2X) was 2+ (50% of cells infected with selected virus) and the “CPE with TCID50 doses” value (10^-14 grams 2X) was 1+ (25% of cells infected with selected virus). For the same compound, the “CPE with TCID50 doses” value (10^-15 grams 2X) was 1+ (25% of cells infected with selected virus) and the “anti-viral activity” value was “exhibit anti-viral activity”.

With `Cc1ccc(O)cc1C` [3,4-dimethylphenol, reference compound] the “CPE with TCID50 doses” value (10^-6 grams 2X) was 2+ (50% of cells infected with selected virus), the “CPE with TCID50 doses” value (10^-7 grams 2X) was 1+ (25% of cells infected with selected virus) and the “CPE with TCID50 doses” value (10^-8 grams 2X) was 1+ (25% of cells infected with selected virus). The “CPE with TCID50 doses” value (10^-9 grams 2X) was 1+ (25% of cells infected with selected virus), the “CPE with TCID50 doses” value (10^-10 grams 2X) was 2+ (50% of cells infected with selected virus) and the “CPE with TCID50 doses” value (10^-11 grams 2X) was 2+ (50% of cells infected with selected virus). The “CPE with TCID50 doses” value (10^-12 grams 2X) was 1+ (25% of cells infected with selected virus), the “CPE with TCID50 doses” value (10^-13 grams 2X) was 2+ (50% of cells infected with selected virus) and the “CPE with TCID50 doses” value (10^-14 grams 2X) was 2+ (50% of cells infected with selected virus). For the same compound, the “CPE with TCID50 doses” value (10^-15 grams 2X) was 1+ (25% of cells infected with selected virus).
